Data from article PMC12586182 (Frontiers in Oncology, 2025).
pIC50: −log10 of the molar value.

Tests used:
Assay type in all cases: biochemical
FLT1 = biological target: T1, FLT1 (Homo sapiens, UniProt P17948); assay: Kinase panel profiling at 1 µmol/L (mobility shift assay, Carna); conditions: 1 µmol/L of BTK inhibitor
T1 construct: purchased Carna Biosciences

p38γ = biological target: T2, p38γ (Homo sapiens, UniProt P53778); assay: as above; conditions: 1 µmol/L of BTK inhibitor
T2 construct: purchased Carna Biosciences
T2 sequence (P53778 1-367): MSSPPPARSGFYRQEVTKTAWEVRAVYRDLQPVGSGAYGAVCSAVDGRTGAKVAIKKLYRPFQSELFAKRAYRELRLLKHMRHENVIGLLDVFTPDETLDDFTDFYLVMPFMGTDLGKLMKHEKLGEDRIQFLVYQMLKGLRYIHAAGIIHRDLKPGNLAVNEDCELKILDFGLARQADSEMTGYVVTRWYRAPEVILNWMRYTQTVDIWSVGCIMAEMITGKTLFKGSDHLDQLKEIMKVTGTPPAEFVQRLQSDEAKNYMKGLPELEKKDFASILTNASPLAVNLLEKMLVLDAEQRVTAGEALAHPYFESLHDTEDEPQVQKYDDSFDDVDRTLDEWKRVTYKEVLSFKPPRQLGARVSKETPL

CK1γ1 = biological target: T3, CK1γ1 (Homo sapiens, UniProt Q9HCP0); assay: as above; conditions: 1 µmol/L of BTK inhibitor
T3 construct: purchased Carna Biosciences

NEK7 = biological target: T4, NEK7 (Homo sapiens, UniProt Q8TDX7); assay: as above; conditions: 1 µmol/L of BTK inhibitor
T4 construct: purchased Carna Biosciences

CDK9/CycT1 = biological target: T5, CDK9/CycT1 (Homo sapiens, UniProt P50750); assay: as above; conditions: 1 µmol/L of BTK inhibitor
T5 construct: purchased Carna Biosciences

ROCK1 = biological target: T6, ROCK1 (Homo sapiens, UniProt Q13464); assay: as above; conditions: 1 µmol/L of BTK inhibitor
T6 construct: purchased Carna Biosciences

FAK = biological target: T7, FAK (Homo sapiens, UniProt Q05397); assay: as above; conditions: 1 µmol/L of BTK inhibitor
T7 construct: purchased Carna Biosciences

IRAK1 = biological target: T8, IRAK1 (Homo sapiens, UniProt P51617); assay: as above; conditions: 1 µmol/L of BTK inhibitor
T8 construct: purchased Carna Biosciences

MARK1 = biological target: T9, MARK1 (Homo sapiens, UniProt Q9P0L2); assay: as above; conditions: 1 µmol/L of BTK inhibitor
T9 construct: purchased Carna Biosciences

DAPK1 = biological target: T10, DAPK1 (Homo sapiens, UniProt P53355); assay: as above; conditions: 1 µmol/L of BTK inhibitor
T10 construct: purchased Carna Biosciences

PDHK4 = biological target: T11, PDHK4 (Homo sapiens, UniProt Q16654); assay: as above; conditions: 1 µmol/L of BTK inhibitor
T11 construct: purchased Carna Biosciences

p38α = biological target: T12, p38α (Homo sapiens, UniProt Q16539); assay: as above; conditions: 1 µmol/L of BTK inhibitor
T12 construct: purchased Carna Biosciences

IRAK4 = biological target: T13, IRAK4 (Homo sapiens, UniProt Q9NWZ3); assay: as above; conditions: 1 µmol/L of BTK inhibitor
T13 construct: purchased Carna Biosciences
T13 sequence (Q9NWZ3 1-460): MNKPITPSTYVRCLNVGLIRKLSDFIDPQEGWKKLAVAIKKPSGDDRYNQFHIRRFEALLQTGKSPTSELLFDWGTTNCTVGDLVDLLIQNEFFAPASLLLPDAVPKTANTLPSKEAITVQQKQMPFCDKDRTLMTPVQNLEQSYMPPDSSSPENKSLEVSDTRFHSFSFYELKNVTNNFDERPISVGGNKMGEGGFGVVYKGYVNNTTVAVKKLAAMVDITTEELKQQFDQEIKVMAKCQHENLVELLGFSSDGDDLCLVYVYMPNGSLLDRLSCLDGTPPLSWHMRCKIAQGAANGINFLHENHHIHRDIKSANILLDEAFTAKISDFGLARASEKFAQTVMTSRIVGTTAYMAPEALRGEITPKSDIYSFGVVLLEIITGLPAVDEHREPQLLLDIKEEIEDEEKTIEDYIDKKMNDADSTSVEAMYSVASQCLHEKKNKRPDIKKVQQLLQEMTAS

EEF2K = biological target: T14, EEF2K (Homo sapiens, UniProt O00418); assay: as above; conditions: 1 µmol/L of BTK inhibitor
T14 construct: purchased Carna Biosciences
T14 sequence (O00418 1-725): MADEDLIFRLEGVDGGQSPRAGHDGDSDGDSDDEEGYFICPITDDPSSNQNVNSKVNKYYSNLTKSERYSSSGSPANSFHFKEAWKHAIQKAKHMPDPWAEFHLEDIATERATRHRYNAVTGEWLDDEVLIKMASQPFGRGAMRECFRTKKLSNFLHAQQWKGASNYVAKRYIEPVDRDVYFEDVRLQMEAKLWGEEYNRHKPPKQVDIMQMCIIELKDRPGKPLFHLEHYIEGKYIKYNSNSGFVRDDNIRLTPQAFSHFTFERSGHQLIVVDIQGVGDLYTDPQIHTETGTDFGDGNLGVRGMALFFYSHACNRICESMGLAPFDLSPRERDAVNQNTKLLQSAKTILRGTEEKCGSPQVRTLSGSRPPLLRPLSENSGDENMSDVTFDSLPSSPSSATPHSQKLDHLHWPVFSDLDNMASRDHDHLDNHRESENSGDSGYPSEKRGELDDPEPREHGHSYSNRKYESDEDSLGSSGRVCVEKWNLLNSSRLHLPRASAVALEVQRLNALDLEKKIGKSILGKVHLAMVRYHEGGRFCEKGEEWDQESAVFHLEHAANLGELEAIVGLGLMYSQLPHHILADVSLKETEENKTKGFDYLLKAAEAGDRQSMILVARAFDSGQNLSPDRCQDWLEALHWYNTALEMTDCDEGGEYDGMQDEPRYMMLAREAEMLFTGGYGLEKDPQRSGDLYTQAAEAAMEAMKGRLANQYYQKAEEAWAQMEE

BTK = biological target: T15, BTK (Homo sapiens, UniProt Q06187); assay: Kinase enzyme activity assay (mobility shift assay, Carna); conditions: for Percentage inhibition of kinase enzyme activity: BTK, 1 µmol/L of BTK inhibitor
T15 construct: purchased Carna Biosciences, Inc

FYN [isoform b] = biological target: T16, FYN [isoform b] (Homo sapiens, UniProt P06241); assay: Kinase panel profiling at 1 µmol/L (mobility shift assay, Carna); conditions: 1 µmol/L of BTK inhibitor
T16 construct: purchased Carna Biosciences

T3 sequence (Q9HCP0 whole entry): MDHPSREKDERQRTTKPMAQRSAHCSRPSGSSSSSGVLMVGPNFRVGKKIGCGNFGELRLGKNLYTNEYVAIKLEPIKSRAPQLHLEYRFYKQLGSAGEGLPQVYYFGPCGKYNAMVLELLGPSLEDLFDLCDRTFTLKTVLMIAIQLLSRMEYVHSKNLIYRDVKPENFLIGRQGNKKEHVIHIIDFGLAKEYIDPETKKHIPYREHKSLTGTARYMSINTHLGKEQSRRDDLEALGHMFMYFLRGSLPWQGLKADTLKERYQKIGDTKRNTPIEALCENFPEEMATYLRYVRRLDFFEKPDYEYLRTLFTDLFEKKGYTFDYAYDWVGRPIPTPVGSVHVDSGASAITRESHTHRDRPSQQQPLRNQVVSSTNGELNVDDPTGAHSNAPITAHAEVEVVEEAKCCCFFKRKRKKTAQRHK
T6 sequence (Q13464 whole entry): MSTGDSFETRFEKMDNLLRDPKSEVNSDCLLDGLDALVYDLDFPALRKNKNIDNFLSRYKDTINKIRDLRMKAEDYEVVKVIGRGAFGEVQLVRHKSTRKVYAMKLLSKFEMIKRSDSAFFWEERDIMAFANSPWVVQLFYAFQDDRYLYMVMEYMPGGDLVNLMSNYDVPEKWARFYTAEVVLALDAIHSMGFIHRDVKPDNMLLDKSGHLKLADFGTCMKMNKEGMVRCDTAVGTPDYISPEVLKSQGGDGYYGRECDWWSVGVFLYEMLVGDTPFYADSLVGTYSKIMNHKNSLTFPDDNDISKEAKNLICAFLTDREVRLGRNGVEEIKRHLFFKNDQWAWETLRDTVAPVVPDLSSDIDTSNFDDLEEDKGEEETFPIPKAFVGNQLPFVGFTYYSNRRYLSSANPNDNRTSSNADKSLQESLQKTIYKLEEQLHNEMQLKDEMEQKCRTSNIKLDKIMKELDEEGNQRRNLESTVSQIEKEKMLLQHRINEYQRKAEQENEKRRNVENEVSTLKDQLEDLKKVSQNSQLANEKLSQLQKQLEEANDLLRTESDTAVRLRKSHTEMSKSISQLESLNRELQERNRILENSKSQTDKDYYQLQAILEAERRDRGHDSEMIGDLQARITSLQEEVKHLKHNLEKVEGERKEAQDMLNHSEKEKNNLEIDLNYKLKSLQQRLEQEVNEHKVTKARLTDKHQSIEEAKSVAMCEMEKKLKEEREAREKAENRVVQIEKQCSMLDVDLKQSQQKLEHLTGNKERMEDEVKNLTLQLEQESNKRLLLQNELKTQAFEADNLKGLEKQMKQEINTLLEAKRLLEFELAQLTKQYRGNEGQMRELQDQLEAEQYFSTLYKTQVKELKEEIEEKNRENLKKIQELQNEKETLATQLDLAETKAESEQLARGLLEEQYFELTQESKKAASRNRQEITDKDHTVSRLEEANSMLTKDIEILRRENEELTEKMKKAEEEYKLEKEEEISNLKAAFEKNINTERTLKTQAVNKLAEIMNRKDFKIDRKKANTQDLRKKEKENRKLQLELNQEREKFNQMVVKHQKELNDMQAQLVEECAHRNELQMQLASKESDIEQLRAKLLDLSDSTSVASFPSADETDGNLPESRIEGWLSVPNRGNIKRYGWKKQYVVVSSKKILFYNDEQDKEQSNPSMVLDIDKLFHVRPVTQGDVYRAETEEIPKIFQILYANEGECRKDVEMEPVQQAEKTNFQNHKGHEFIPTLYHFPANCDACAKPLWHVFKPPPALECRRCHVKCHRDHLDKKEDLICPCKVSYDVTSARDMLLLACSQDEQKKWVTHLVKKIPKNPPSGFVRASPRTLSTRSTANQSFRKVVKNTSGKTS
T10 sequence (P53355 whole entry): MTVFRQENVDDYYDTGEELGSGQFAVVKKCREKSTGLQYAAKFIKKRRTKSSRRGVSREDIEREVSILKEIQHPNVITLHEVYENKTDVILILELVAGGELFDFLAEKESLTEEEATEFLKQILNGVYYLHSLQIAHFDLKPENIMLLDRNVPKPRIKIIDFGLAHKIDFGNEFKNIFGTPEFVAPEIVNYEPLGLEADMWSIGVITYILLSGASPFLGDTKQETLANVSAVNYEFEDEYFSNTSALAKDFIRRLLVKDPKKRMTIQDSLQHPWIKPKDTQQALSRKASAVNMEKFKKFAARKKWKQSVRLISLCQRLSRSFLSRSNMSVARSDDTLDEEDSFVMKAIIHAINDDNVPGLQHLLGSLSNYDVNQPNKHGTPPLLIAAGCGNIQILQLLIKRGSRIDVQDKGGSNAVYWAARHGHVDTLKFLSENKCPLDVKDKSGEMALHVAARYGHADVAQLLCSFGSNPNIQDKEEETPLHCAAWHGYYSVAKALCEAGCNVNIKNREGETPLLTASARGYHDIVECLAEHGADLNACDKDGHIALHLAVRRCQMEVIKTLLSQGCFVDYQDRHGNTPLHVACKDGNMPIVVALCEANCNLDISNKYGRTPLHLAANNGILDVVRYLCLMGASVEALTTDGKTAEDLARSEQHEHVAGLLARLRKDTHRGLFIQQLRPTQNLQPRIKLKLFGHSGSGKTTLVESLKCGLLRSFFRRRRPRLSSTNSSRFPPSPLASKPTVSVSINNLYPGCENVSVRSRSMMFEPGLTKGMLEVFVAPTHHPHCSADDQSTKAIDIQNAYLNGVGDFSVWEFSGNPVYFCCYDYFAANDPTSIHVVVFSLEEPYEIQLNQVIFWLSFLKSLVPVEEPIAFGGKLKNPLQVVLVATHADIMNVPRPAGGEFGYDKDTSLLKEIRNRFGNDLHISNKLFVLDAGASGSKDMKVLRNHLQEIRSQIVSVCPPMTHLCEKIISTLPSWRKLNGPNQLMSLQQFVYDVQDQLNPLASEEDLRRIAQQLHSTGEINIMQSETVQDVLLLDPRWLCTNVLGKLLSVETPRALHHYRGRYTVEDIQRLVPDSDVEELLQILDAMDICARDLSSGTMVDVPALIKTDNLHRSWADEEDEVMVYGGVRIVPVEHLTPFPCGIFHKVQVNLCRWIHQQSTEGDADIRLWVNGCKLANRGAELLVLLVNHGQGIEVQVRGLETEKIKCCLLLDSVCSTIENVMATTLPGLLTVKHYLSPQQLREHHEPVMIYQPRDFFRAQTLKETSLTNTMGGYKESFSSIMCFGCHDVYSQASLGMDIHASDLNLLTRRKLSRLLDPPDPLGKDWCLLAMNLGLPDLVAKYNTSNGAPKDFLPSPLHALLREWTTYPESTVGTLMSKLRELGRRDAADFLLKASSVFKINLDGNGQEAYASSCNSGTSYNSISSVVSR
T12 sequence (Q16539 whole entry): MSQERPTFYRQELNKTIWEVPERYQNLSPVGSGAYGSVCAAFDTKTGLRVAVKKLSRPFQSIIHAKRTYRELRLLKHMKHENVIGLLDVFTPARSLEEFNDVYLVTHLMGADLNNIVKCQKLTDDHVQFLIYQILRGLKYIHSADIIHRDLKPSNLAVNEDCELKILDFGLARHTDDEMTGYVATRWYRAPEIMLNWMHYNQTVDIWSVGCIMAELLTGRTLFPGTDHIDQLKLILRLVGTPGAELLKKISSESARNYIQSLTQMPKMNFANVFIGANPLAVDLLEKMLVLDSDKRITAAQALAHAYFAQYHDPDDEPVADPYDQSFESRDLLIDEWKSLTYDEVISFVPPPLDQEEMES
T1 sequence (P17948 27-1338): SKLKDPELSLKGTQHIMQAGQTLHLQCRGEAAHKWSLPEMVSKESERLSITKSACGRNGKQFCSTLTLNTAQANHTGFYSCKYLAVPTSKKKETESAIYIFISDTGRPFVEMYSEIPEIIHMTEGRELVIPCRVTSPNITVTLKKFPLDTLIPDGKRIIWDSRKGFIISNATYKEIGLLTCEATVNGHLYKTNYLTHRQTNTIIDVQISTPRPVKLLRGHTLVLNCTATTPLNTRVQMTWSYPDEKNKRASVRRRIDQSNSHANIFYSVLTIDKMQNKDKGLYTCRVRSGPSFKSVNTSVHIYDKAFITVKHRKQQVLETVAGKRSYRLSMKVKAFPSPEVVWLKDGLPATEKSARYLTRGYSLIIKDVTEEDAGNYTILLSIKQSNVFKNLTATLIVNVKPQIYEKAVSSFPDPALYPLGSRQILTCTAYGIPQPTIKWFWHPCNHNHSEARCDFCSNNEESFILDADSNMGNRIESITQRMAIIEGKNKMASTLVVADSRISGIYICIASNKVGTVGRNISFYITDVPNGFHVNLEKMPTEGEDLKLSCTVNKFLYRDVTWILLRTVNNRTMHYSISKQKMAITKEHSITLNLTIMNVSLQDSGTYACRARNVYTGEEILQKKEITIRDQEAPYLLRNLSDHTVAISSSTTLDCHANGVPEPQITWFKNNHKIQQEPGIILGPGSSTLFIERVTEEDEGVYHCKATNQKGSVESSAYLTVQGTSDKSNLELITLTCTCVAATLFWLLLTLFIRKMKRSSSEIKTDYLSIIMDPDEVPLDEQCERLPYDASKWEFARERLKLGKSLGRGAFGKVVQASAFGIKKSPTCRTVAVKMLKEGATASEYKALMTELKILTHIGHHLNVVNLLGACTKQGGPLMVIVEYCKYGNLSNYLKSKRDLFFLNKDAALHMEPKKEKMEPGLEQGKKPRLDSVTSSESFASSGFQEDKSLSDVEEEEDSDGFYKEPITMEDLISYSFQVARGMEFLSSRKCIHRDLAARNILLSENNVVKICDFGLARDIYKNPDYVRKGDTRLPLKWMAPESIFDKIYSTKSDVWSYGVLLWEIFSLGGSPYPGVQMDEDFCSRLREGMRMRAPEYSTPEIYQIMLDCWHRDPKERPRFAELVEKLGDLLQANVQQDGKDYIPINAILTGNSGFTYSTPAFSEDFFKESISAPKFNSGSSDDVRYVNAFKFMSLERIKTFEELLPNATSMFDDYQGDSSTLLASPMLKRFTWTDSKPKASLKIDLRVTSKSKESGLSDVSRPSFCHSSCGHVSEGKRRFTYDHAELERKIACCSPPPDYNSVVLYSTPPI

Compound: O=C(c1ccc(Oc2ccccc2)cc1Cl)c1c[nH]c2ncnc(N[C@@H]3CC[C@@H](CO)OC3)c12 [nemtabrutinib]
- Percentage inhibition of kinase enzyme activity (FLT1): 87.14%
- Percentage inhibition of kinase enzyme activity (p38γ): 0.72%
- Percentage inhibition of kinase enzyme activity (CK1γ1): 0.57%
- Percentage inhibition of kinase enzyme activity (NEK7): 3.06%
- Percentage inhibition of kinase enzyme activity (CDK9/CycT1): -0.08%
- Percentage inhibition of kinase enzyme activity (ROCK1): 16.05%
- Percentage inhibition of kinase enzyme activity (FAK): 100.03%
- Percentage inhibition of kinase enzyme activity (IRAK1): -0.39%
- Percentage inhibition of kinase enzyme activity (MARK1): 2.15%
- Percentage inhibition of kinase enzyme activity (DAPK1): -7.44%
- Percentage inhibition of kinase enzyme activity (PDHK4): -2.73%
- Percentage inhibition of kinase enzyme activity (p38α): 2.09%
- Percentage inhibition of kinase enzyme activity (IRAK4): 2.38%
- Percentage inhibition of kinase enzyme activity (EEF2K): 0.24%
- Percentage inhibition of kinase enzyme activity (BTK): 97.07%

Compound: CC#CC(=O)N1CCC[C@H]1c1nc(-c2ccc(C(=O)Nc3ccccn3)cc2)c2c(N)nccn12 [acalabrutinib]
- Percentage inhibition of kinase enzyme activity (FLT1): -1.14%
- Percentage inhibition of kinase enzyme activity (FYN [isoform b]): -1.25%
- Percentage inhibition of kinase enzyme activity (p38γ): -1.74%
- Percentage inhibition of kinase enzyme activity (CK1γ1): 0.33%
- Percentage inhibition of kinase enzyme activity (NEK7): -10.68%
- Percentage inhibition of kinase enzyme activity (CDK9/CycT1): 15.27%
- Percentage inhibition of kinase enzyme activity (ROCK1): -7.78%
- Percentage inhibition of kinase enzyme activity (FAK): -1.39%
- Percentage inhibition of kinase enzyme activity (IRAK1): -7.06%
- Percentage inhibition of kinase enzyme activity (MARK1): -3.49%
- Percentage inhibition of kinase enzyme activity (DAPK1): -17.45%
- Percentage inhibition of kinase enzyme activity (PDHK4): 0.39%
- Percentage inhibition of kinase enzyme activity (p38α): -0.75%
- Percentage inhibition of kinase enzyme activity (IRAK4): -6.55%
- Percentage inhibition of kinase enzyme activity (EEF2K): -12.14%
- Percentage inhibition of kinase enzyme activity (BTK): 94.95%

Compound: COc1ccc(F)cc1C(=O)NCc1ccc(-c2nn([C@@H](C)C(F)(F)F)c(N)c2C(N)=O)cc1 [pirtobrutinib]
- Percentage inhibition of kinase enzyme activity (FLT1): 4.85%
- Percentage inhibition of kinase enzyme activity (FYN [isoform b]): 15.19%
- Percentage inhibition of kinase enzyme activity (p38γ): -2.05%
- Percentage inhibition of kinase enzyme activity (CK1γ1): 5.92%
- Percentage inhibition of kinase enzyme activity (NEK7): -2.19%
- Percentage inhibition of kinase enzyme activity (CDK9/CycT1): -6.41%
- Percentage inhibition of kinase enzyme activity (ROCK1): -4.30%
- Percentage inhibition of kinase enzyme activity (FAK): 0.91%
- Percentage inhibition of kinase enzyme activity (IRAK1): -6.46%
- Percentage inhibition of kinase enzyme activity (MARK1): -8.44%
- Percentage inhibition of kinase enzyme activity (DAPK1): -0.51%
- Percentage inhibition of kinase enzyme activity (PDHK4): 3.76%
- Percentage inhibition of kinase enzyme activity (p38α): -2.18%
- Percentage inhibition of kinase enzyme activity (IRAK4): -1.11%
- Percentage inhibition of kinase enzyme activity (EEF2K): -0.12%
- Percentage inhibition of kinase enzyme activity (BTK): 98.09%
- pIC50 (BTK; K M,bin ATP): 8.64

Compound: C=CC(=O)N1CCC([C@@H]2CCNc3c(C(N)=O)c(-c4ccc(Oc5ccccc5)cc4)nn32)CC1 [zanubrutinib]
- Percentage inhibition of kinase enzyme activity (FLT1): 22.02%
- Percentage inhibition of kinase enzyme activity (FAK): 0.0146%

Compound: C=CC(=O)N1CCC[C@@H](n2nc(-c3ccc(Oc4ccccc4)cc3)c3c(N)ncnc32)C1 [ibrutinib]
- Percentage inhibition of kinase enzyme activity (FLT1): 72.57%
- Percentage inhibition of kinase enzyme activity (FYN [isoform b]): 86.77%
- Percentage inhibition of kinase enzyme activity (p38γ): 3.51%
- Percentage inhibition of kinase enzyme activity (CK1γ1): 3.68%
- Percentage inhibition of kinase enzyme activity (NEK7): 0.69%
- Percentage inhibition of kinase enzyme activity (ROCK1): -5.42%
- Percentage inhibition of kinase enzyme activity (FAK): 5.04%
- Percentage inhibition of kinase enzyme activity (IRAK1): -10.80%
- Percentage inhibition of kinase enzyme activity (MARK1): 2.46%
- Percentage inhibition of kinase enzyme activity (DAPK1): -3.80%
- Percentage inhibition of kinase enzyme activity (p38α): -2.71%
- Percentage inhibition of kinase enzyme activity (IRAK4): -5.09%
- Percentage inhibition of kinase enzyme activity (EEF2K): 1.15%
